Reference: US20220008566A1, “Pharmaceutical Composition Comprising a Radiolabeled GRPR Antagonist and a Surfactant” (Advanced Accelerator Applications International SA, priority 2018, published 2022)

Assays:
PC-3 cells = assay: Therapeutic efficacy of 177Lu-NeoBOMB1 in PC-3 xenografted mice; format: in vivo, balb c nu/nu mice; settings: for time to reach a tumor size of 2000 mm^3: 1 week apart, extrapolated growth curves; for animals without any tumor regrowth after a complete response: n=15
Description: Male balb c nu/nu mice were subcutaneously inoculated on the right shoulder with 200 μL 4×10^6 PC-3 cells (American Type Culture Collection) in inoculation medium (⅓ Matrigel high concentration (Corning)+⅔ Hank's balanced salt solution (Thermofisher Scientific)). Four weeks post tumor cell inoculation when an average tumor size of 543+177 mm^3 was reached, animals were divided in four groups: control group (n=10) and therapy group 1-3 (n=15 per group). To determine the efficacy of ^177Lu-NeoBOMB1, animals received either 3 sham injections (control group), 3×30 MBq/300 pmol ^177Lu-NeoBOMB1 (group 1), 3×40 MBq/400 pmol ^177Lu-NeoBOMB1 (group 2) or 3×60 MBq/600 pmol ^177Lu-NeoBOMB1 (group 3) under isoflurane/O2 anesthesia. Injections were administered intravenously and injections were given 1 week apart.
(§1) In both studies, animal weight and/or tumor size was measured bi-weekly. When tumor size was ≥2000 mm^3 or a decrease in animal weight ≥20% within 48 hours was observed, animals were removed from the study. In the efficacy study, animals were followed until the maximum allowed age of 230 days was reached.
The tumor doubling times were determined by fitting an exponential growth function to the tumor volume over time in the control group. In the therapy groups an interval with exponential tumor volume decline was fitted with onset of regrowth after the nadir time. The growth curves were extrapolated beyond the censoring time points for mice with too large tumors (>2000 mm^3) to determine average growth statistics. Tumor growth delay times were individually determined by comparing the times needed to reach the maximum tumor size of 2000 mm^3 with the mean time found in the control group.
Prism software (version 5.01, GraphPad Software) was used for statistical analyses. P values […] were considered statistically significant. The difference in tumor volume growths and delay times for the 4 groups were analyzed with the One-way ANOVA test with Bonferroni's multiple comparison test. Curve fitting was performed according to the least/square fit with the Pearson R^2 to quantify its goodness.

[1] = Dosimetry: estimated absorbed dose to tumor, pancreas and kidneys (RADAR realistic mouse model)
Excerpt: The RADAR realistic mouse model (Keenan M A, Stabin M G, Segars W P, Fernald M J. RADAR realistic animal model series for dose assessment. J Nucl Med. 2010; 51:471-476) with a weight of 25 g and data from previously published biodistribution and pharmacokinetic studies (Dalm S U, Bakker I L, de Blois E, et al. 68Ga/^177Lu-NeoBOMB1, a Novel Radiolabeled GRPR Antagonist for Theranostic Use in Oncology. J Nucl Med. 2017; 58:293-299) were used to calculate the dose to the tumor, pancreas and kidneys, when animals were treated with 3×30 MBq/300 pmol, […] or 3×60 MBq/600 pmol ^177Lu-NeoBOMB1. The biodistribution data of our previously published paper (Dalm S U, Bakker I L, de Blois E, et al. ^68Ga/^177Lu-NeoBOMB1, a Novel Radiolabeled GRPR Antagonist for Theranostic Use in Oncology. J Nucl Med. 2017; 58:293-299) were fitted with exponential curves to define the time-activity curve in the tumor and organs. The time integrated activities for ^177Lu were obtained by integrating these exponential curves folded with the 177Lu decay curve (T1/2=6.647 d). Absorbed doses per administered activities were obtained by multiplying with the organ S-values from Keenan et al. (Keenan M A, Stabin M G, Segars W P, Fernald M J. RADAR realistic animal model series for dose assessment. J Nucl Med. 2010; 51:471-476) or by using the spherical node S-values (Stabin M G, Konijnenberg M W. Re-evaluation of absorbed fractions for photons and electrons in spheres of various sizes. J Nucl Med. 2000; 41:149-160) for a 340 mg tumor.
An estimation was made of the radioactivity dose to the tumor, pancreas and kidneys after treatment with 3×30 MBq/300 pmol, 3×40 MBq/400 pmol or 3×60 MBq/600 pmol ^177Lu-NeoBOMB1 (See Table 3 below). For this it was assumed that tumor and organ uptake was similar after each injection.

[2] = test system: non-tumor bearing balb c nu/nu male mice; assay: Kidney and pancreas toxicity of 177Lu-NeoBOMB1 treatment; format: in vivo; settings: for histopathology of the kidneys: 24 weeks after therapy
Description: To determine the effect of treatment on pancreas and kidney tissue, non-tumor bearing balb c nu/nu male mice received the same treatment as the animals included in the efficacy study. At 2 different time points after the last therapeutic injection (12 weeks and 24 weeks p.i.) animals were euthanized and pancreas and kidney tissue was collected for pathological analysis.
as §1
Pancreatic and kidney tissue collected for pathological analysis was formalin fixed and paraffin embedded. Hematoxylin and eosin staining was performed on […] thick tissue slices using the Ventana Symphony™ H&E protocol (Ventana), to determine differences in tissue structure between the 4 treatment groups. In total 4 tissue slices, […] apart from each other were evaluated of each organ. The hematoxylin and eosin staining's were evaluated by experienced pathologists.

[3] = 3×30 MBq/300 pmol, 1st injection
[4] = 3×30 MBq/300 pmol, 2nd injection
[5] = 3×30 MBq/300 pmol, 3rd injection
[6] = 3×40 MBq/400 pmol, 1st injection
[7] = 3×40 MBq/400 pmol, 2nd injection
[8] = 3×40 MBq/400 pmol, 3rd injection
[9] = 3×60 MBq/600 pmol, 1st injection
[10] = 3×60 MBq/600 pmol, 2nd injection
[11] = 3×60 MBq/600 pmol, 3rd injection

## CC(C)CC(CC(C)C)NC(=O)[C@H](Cc1cnc[nH]1)NC(=O)CNC(=O)[C@@H](NC(=O)[C@H](C)NC(=O)[C@H](Cc1c[nH]c2ccccc12)NC(=O)[C@H](CCC(N)=O)NC(=O)[C@@H](Cc1ccccc1)NC(=O)COCC(=O)Nc1ccc(CNC(=O)CN2CCN(CC(=O)O)CCN(CC(=O)O)CCN(CC(=O)O)CC2)cc1)C(C)C [^177Lu-NeoBOMB1, metal not drawn]
PC-3 cells; all treatment groups vs control group
  therapy efficacy: effective
PC-3 cells; group 1, 3×30 MBq/300 pmol
  Median survival: 82 days
  animals without any tumor regrowth after a complete response: two
PC-3 cells; group 1, 3×30 MBq/300 pmol i.v.
  time to reach a tumor size of 2000 mm^3: 97 ± 59 days
PC-3 cells; group 2, 3×40 MBq/400 pmol
  Median survival: 89 days
  animals without any tumor regrowth after a complete response: one
PC-3 cells; group 2, 3×40 MBq/400 pmol i.v.
  time to reach a tumor size of 2000 mm^3: 103 ± 66 days
PC-3 cells; group 3, 3×60 MBq/600 pmol
  Median survival: 99 days
PC-3 cells; group 3, 3×60 MBq/600 pmol i.v.
  time to reach a tumor size of 2000 mm^3: 95 ± 26 days
[1]; [3]
  Cumulative absorbed dose, Kidney: 1.7 Gy
  Cumulative absorbed dose, Pancreas: 7.9 Gy
  Cumulative absorbed dose, Tumor: 17 Gy
[1]; [4]
  Cumulative absorbed dose, Kidney: 3.4 Gy
  Cumulative absorbed dose, Pancreas: 16 Gy
  Cumulative absorbed dose, Tumor: 34 Gy
[1]; [5]
  Cumulative absorbed dose, Kidney: 5.1 Gy
  Cumulative absorbed dose, Pancreas: 32 Gy
  Cumulative absorbed dose, Tumor: 68 Gy
[1]; [6]
  Cumulative absorbed dose, Kidney: 2.3 Gy
  Cumulative absorbed dose, Pancreas: 11 Gy
  Cumulative absorbed dose, Tumor: 23 Gy
[1]; [7]
  Cumulative absorbed dose, Kidney: 4.5 Gy
  Cumulative absorbed dose, Pancreas: 21 Gy
  Cumulative absorbed dose, Tumor: 46 Gy
[1]; [8]
  Cumulative absorbed dose, Kidney: 6.8 Gy
  Cumulative absorbed dose, Pancreas: 42 Gy
  Cumulative absorbed dose, Tumor: 91 Gy
[1]; [9]
  Cumulative absorbed dose, Kidney: 3.4 Gy
  Cumulative absorbed dose, Pancreas: 16 Gy
  Cumulative absorbed dose, Tumor: 34 Gy
[1]; [10]
  Cumulative absorbed dose, Kidney: 6.8 Gy
  Cumulative absorbed dose, Pancreas: 32 Gy
  Cumulative absorbed dose, Tumor: 68 Gy
[1]; [11]
  Cumulative absorbed dose, Kidney: 10 Gy
  Cumulative absorbed dose, Pancreas: 64 Gy
  Cumulative absorbed dose, Tumor: 137 Gy
[2]; 12 and 24 weeks after last injection, in control as well as treated animals, not related to therapy
  histopathology of the kidneys, lymphocyte infiltration: small areas with lymphocyte infiltration
[2]; H&E, 12 and 24 weeks after last injection
  histopathology of the pancreas: no tissue damage or other abnormalities
[2]; all groups, follow-up up to 24 weeks
  animal weight: no critical decrease in weight
[2]; group 3 (3×60 MBq/600 pmol), both animals
  histopathology of the kidneys: mild chronic inflammatory response
[2]; lowest dose (3×30 MBq/300 pmol), ID: 864, unlikely related to therapy
  histopathology of the kidneys: atrophy and fibrosis were observed in the kidneys of only one animal
[2]; one animal from Group 1 (ID: 869)
  decrease in weight within 48 h: less than 10%
